The values below come from ChEMBL document CHEMBL2177101, “Role of the CAI-1 fatty acid tail in the Vibrio cholerae quorum sensing response” (J Med Chem, 2012).

In the first test the test system is Vibrio cholerae. Briefly: Agonist activity at CqsS in Vibrio cholerae MM920 harboring deltacqsA, deltaluxQ and pBB1 at 50000 nM after 4 hrs by bioluminescence assay relative to CAI-1. The class given is functional.
The compound `CCc1ccccc1CCCOC(=O)C(O)CC` (racemic) displayed a maximal effect (Emax) of 28%.
Take `CCCCOC(=O)C(O)CC` (racemic): the Emax is 23%.
Still for that read-out and setting: the result for `CCOCCOCCOC(=O)C(O)CC` (racemic) reads 31%; that for `CCCCc1ccccc1COC(=O)C(O)CC` (racemic), 11%.

Test system in the next test: not listed separately
Nature of the test: Agonist activity at CqsS in Vibrio cholerae MM920 harboring deltacqsA, deltaluxQ and pBB1 after 4 hrs by bioluminescence assay. The class given is functional.
Regarding `CCCCCCCCNC(=O)[C@@H](O)CC`, the EC50 is 1.5 µM.
The same measure, in the same setting: the result for `CCCCCCCCCC(=O)[C@@H](N)CC` reads 0.028 µM.
The compound `CCCCCCCCOC(=O)[C@@H](N)CC` showed an EC50 of 0.03 µM.
Same read-out and setting: to `CCCCCCCCOC(=O)[C@H](N)CC` belongs 0.033 µM; to `CCCCC/C=C/COC(=O)[C@@H](O)CC`, 0.039 µM.
Same read-out and setting: the result for `CCCCc1ccc(COC(=O)[C@@H](O)CC)cc1` reads 0.117 µM.
Compound `CCCCC[C@@H]1C[C@H]1COC(=O)C(O)CC` (mixture of isomers) returned an EC50 of 1.2 µM.
With `CCCC/C=C\CCOC(=O)C(O)CC` (racemic), the EC50 is 0.78 µM.
As for `CCCCCc1ccc(COC(=O)C(O)CC)cc1` (racemic), the EC50 is 0.68 µM.
The same measure, in the same setting: to `CCCCCc1cccc(COC(=O)C(O)CC)c1` (racemic) belongs 1.6 µM; to `CCc1ccc(CCCOC(=O)C(O)CC)cc1` (racemic), 0.19 µM.
`CCc1cccc(CCCOC(=O)C(O)CC)c1` (racemic) returned an EC50 of 9.4 µM.
For the compound `CCc1ccccc1CCCOC(=O)C(O)CC` (racemic), the EC50 is over 50 µM.
Still for that read-out and setting: to `CCCCOC(=O)C(O)CC` (racemic) belongs over 50 µM; to `CCCCCCOC(=O)C(O)CC` (racemic), 1 µM; to `CCCCCCCOC(=O)C(O)CC` (racemic), 0.35 µM.
The compound `CCCCCCCCCOC(=O)C(O)CC` (racemic) gave an EC50 of 0.073 µM.
The same measure, in the same setting: the result for `CCCCCCCCCCOC(=O)C(O)CC` (racemic) reads 0.72 µM; that for `CCCCCOCCOC(=O)C(O)CC` (racemic), 4.4 µM.
In turn, `CCOCCOCCOC(=O)C(O)CC` (racemic) came in with an EC50 of over 50 µM.
As to `CCCCCCOCCOC(=O)C(O)CC` (racemic), the half-maximal effective concentration (EC50) is 2.4 µM.
The compound `CCC(O)C(=O)OCCOCCOCCOC` (racemic) had an EC50 of 10 µM.
In the case of `CCCCC/C=C/COC(=O)C(O)CC` (racemic), the response was half-maximal at 0.054 µM (EC50).
Still for that read-out and setting: to `CCCCC/C=C\COC(=O)C(O)CC` (racemic) belongs 0.71 µM; to `CCCCCC#CCOC(=O)C(O)CC` (racemic), 0.55 µM.
`CCCC/C=C/CCOC(=O)C(O)CC` (racemic) displayed an EC50 of 0.77 µM.
Still for that read-out and setting: the result for `CCCCC#CCCOC(=O)C(O)CC` (racemic) reads 2 µM.
Still for that read-out and setting: the result for `CCC/C=C/CCCOC(=O)C(O)CC` (racemic) reads 0.27 µM; that for `CCC/C=C\CCCOC(=O)C(O)CC` (racemic), 1.8 µM.
On the same count and under the same terms, to `CC/C=C/CCCCOC(=O)C(O)CC` (racemic) belongs 0.83 µM; to `CC/C=C\CCCCOC(=O)C(O)CC` (racemic), 0.57 µM; to `CCCCc1ccc(COC(=O)C(O)CC)cc1` (racemic), 0.19 µM.
In turn, `CCCCc1cccc(COC(=O)C(O)CC)c1` (racemic) came in with an EC50 of 3.7 µM.
Still for that read-out and setting: to `CCCCc1ccccc1COC(=O)C(O)CC` (racemic) belongs over 50 µM.
